# Measured values published in article PMC12483202, “Pharmacokinetic profile of oral firocoxib in the koala (Phascolarctos cinereus)” (PLOS One, 2025).
# Read-outs that look alike come from different tables or passages of the source.
# Tests used:
# COX-2 = settings: cited from earlier work
# [1] = Repeated oral dosing (5 mg/kg every 12 h, six doses) plasma trough concentrations in koalas; type: in vivo; settings: koala (Phascolarctos cinereus)
# Description: At least 2 months after the initial single oral dose administration study, firocoxib was administered twice daily at a dose of 5 mg/kg orally (as described in the single dose administration) for three consecutive days with the last dose administered 60 h after first administration, with a total of six doses administered. Blood (2 mL) was collected once daily into lithium heparin tubes at […] after first firocoxib dosage (prior to the morning dose). The cap, extension tube and catheter were flushed with saline before and after each collection. The first 0.5 mL of blood was discarded to avoid dilution of samples with saline.
# With the repeated oral dosing, the accumulation factor equation [18] was used to ascertain if there was any firocoxib accumulation between trough concentrations at 48 h versus 72 h:
# Accumulationfactor=(1−e^−nkT)/(1−e^−kT)
# Where n = the number of doses k = ke = elimination constant
# τ = number of hours between dosing
# cats = tested on: cats; set-up: method as in PMID 16111170; settings: cited from earlier work
# [2] = set-up: method as in ref [7] of S9 Table; settings: Calves (10); PO 0.5 mg/kg; ref [7] of S9 Table; cited from earlier work
# COX-1:COX-2 = settings: cited from earlier work
# [3] = female, in vivo, Plasma firocoxib concentration (trough)
# [4] = male, in vivo, Plasma firocoxib concentration (trough)
smiles,measurement,setting,value
CC1(C)OC(=O)C(OCC2CC2)=C1c1ccc(S(C)(=O)=O)cc1 [firocoxib],IC80 (COX-2),"COX-2; horse whole blood, in vitro",67 ng/mL
same,plasma concentration required to inhibit 80% of in vitro COX-2 reactions,"COX-2; horse, corrected from whole blood IC80",exceeding 103 ng/mL
same,COX-1:COX-2 inhibition ratio,"COX-2; horses, whole blood",643
same,concentration at 24 h,"[1]; both sexes, plasma, arithmetic mean, six koalas, 24 h, 5 mg/kg oral every 12 h, read-out: Firocoxib plasma trough concentration",54.7 ng/mL
same,concentration at 48 h,"[1]; both sexes, plasma, arithmetic mean, six koalas, 48 h, 5 mg/kg oral every 12 h, read-out: Firocoxib plasma trough concentration",47.4 ng/mL
same,concentration at 72 h,"[1]; both sexes, plasma, arithmetic mean, six koalas, 72 h (12 h after the last dose), 5 mg/kg oral every 12 h, read-out: Firocoxib plasma trough concentration",85.5 ng/mL
same,concentration at 24 h,"[1]; both sexes, plasma, harmonic mean, six koalas, 24 h, 5 mg/kg oral every 12 h, read-out: Firocoxib plasma trough concentration",43.3 ng/mL
same,concentration at 48 h,"[1]; both sexes, plasma, harmonic mean, six koalas, 48 h, 5 mg/kg oral every 12 h, read-out: Firocoxib plasma trough concentration",33.2 ng/mL
same,concentration at 72 h,"[1]; both sexes, plasma, harmonic mean, six koalas, 72 h (12 h after the last dose), 5 mg/kg oral every 12 h, read-out: Firocoxib plasma trough concentration",68.8 ng/mL
same,concentration at 24 h,"[1]; both sexes, plasma, median, six koalas, 24 h, 5 mg/kg oral every 12 h, read-out: Firocoxib plasma trough concentration",58.3 ng/mL
same,concentration at 48 h,"[1]; both sexes, plasma, median, six koalas, 48 h, 5 mg/kg oral every 12 h, read-out: Firocoxib plasma trough concentration",52.9 ng/mL
same,concentration at 72 h,"[1]; both sexes, plasma, median, six koalas, 72 h (12 h after the last dose), 5 mg/kg oral every 12 h, read-out: Firocoxib plasma trough concentration",82.1 ng/mL
same,concentration at 24 h,[1]; [3],69.1 ng/mL
same,concentration at 48 h,[1]; [3],36.8 ng/mL
same,concentration at 72 h,[1]; [3],137 ng/mL
same,concentration at 24 h,"[1]; female, plasma, harmonic mean, females, 24 h, 5 mg/kg oral every 12 h, read-out: Firocoxib trough plasma concentration",75.5 ng/mL
same,concentration at 48 h,"[1]; female, plasma, harmonic mean, females, 48 h, 5 mg/kg oral every 12 h, read-out: Firocoxib trough plasma concentration",51.6 ng/mL
same,concentration at 72 h,"[1]; female, plasma, harmonic mean, females, 72 h, 5 mg/kg oral every 12 h, read-out: Firocoxib trough plasma concentration",118 ng/mL
same,concentration at 24 h,"[1]; female, plasma, mean, females, 24 h, 5 mg/kg oral every 12 h, read-out: Firocoxib trough plasma concentration",76.5 ng/mL
same,concentration at 48 h,"[1]; female, plasma, mean, females, 48 h, 5 mg/kg oral every 12 h, read-out: Firocoxib trough plasma concentration",55.5 ng/mL
same,concentration at 72 h,"[1]; female, plasma, mean, females, 72 h, 5 mg/kg oral every 12 h, read-out: Firocoxib trough plasma concentration",120 ng/mL
same,concentration at 24 h,"[1]; female, plasma, median (range), females, 24 h, 5 mg/kg oral every 12 h, read-out: Firocoxib trough plasma concentration",71.3 ng/mL
same,concentration at 48 h,"[1]; female, plasma, median (range), females, 48 h, 5 mg/kg oral every 12 h, read-out: Firocoxib trough plasma concentration",60.2 ng/mL
same,concentration at 72 h,"[1]; female, plasma, median (range), females, 72 h, 5 mg/kg oral every 12 h, read-out: Firocoxib trough plasma concentration",120 ng/mL
same,concentration at 24 h,[1]; [4],25.3 ng/mL
same,concentration at 72 h,[1]; [4],61.8 ng/mL
same,concentration at 24 h,"[1]; male, plasma, arithmetic mean, males, 24 h, 5 mg/kg oral every 12 h, read-out: Firocoxib trough plasma concentration",33 ng/mL
same,concentration at 48 h,"[1]; male, plasma, arithmetic mean, males, 48 h, 5 mg/kg oral every 12 h, read-out: Firocoxib trough plasma concentration",39.2 ng/mL
same,concentration at 72 h,"[1]; male, plasma, arithmetic mean, males, 72 h, 5 mg/kg oral every 12 h, read-out: Firocoxib trough plasma concentration",51.3 ng/mL
same,concentration at 24 h,"[1]; male, plasma, harmonic mean, males, 24 h, 5 mg/kg oral every 12 h, read-out: Firocoxib trough plasma concentration",30.3 ng/mL
same,concentration at 48 h,"[1]; male, plasma, harmonic mean, males, 48 h, 5 mg/kg oral every 12 h, read-out: Firocoxib trough plasma concentration",24.6 ng/mL
same,concentration at 72 h,"[1]; male, plasma, harmonic mean, males, 72 h, 5 mg/kg oral every 12 h, read-out: Firocoxib trough plasma concentration",48.5 ng/mL
same,concentration at 24 h,"[1]; male, plasma, median (range), males, 24 h, 5 mg/kg oral every 12 h, read-out: Firocoxib trough plasma concentration",26.1 ng/mL
same,concentration at 48 h,"[1]; male, plasma, median (range), males, 48 h, 5 mg/kg oral every 12 h, read-out: Firocoxib trough plasma concentration",48.2 ng/mL
same,concentration at 72 h,"[1]; male, plasma, median (range), males, 72 h, 5 mg/kg oral every 12 h, read-out: Firocoxib trough plasma concentration",56.2 ng/mL
same,antipyretic activity,cats,antipyretic activity
same,Cmax,[2],127.9 ng/mL
same,t1/2,[2],18.8 h
same,COX-1:COX-2 inhibition ratio,"COX-1:COX-2; dogs, whole blood",384–427
same,COX-2 selectivity relative to carprofen,COX-1:COX-2; more potent than carprofen in COX-2 selectivity,30 fold
